The term IC50 denotes the point on the concentration scale where inhibition reaches its midpoint. Read a high IC50 as weaker potency.

Data on 17 compounds can be found in ChEMBL document CHEMBL1150544, “C-3-N-acyl analogs of 9(R)-dihydrotaxol: synthesis and structure activity relationships” (Bioorg Med Chem Lett, 1994).

One test deals with A549. Description: In vitro cytotoxicity against A549-human lung carcinoma cells. In kind it is functional, cell-based.
The next test has as its system B16-F10. Description: In vitro cytotoxicity against B16F10-mouse melanoma cells. In kind it is functional, cell-based.
The subject of a further test is HT-29. Description: In vitro cytotoxicity against HT29-human colon adenocarcinoma cells. The test is classed as functional, cell-based.
The test system of the next test is P388. The test can be described thus: In vitro cytotoxicity against P388-mouse leukemia cells. In kind it is functional, cell-based.
The nature of test [1]: Antitumor activity relative to taxol. The test is classed as functional.

≈ marks a conversion by molar mass, not a printed value. Some results are limits rather than exact numbers.

As to `CC(=O)O[C@@H]1C2=C(C)[C@@H](OC(=O)[C@H](O)[C@@H](NC(=O)OC34CC5CC(CC(C5)C3)C4)c3ccccc3)C[C@@](O)([C@@H](OC(=O)c3ccccc3)[C@@H]3[C@]4(OC(C)=O)CO[C@@H]4C[C@H](O)[C@@]3(C)[C@H]1O)C2(C)C`, the IC50 in the test on A549 is 0.0043 µg/mL (≈ 0.00462 µM); in the test with B16-F10 it was 0.0048 µg/mL (≈ 0.00516 µM); in the test with HT-29, 0.0028 µg/mL (≈ 0.00301 µM); with P388 it was 0.01 µg/mL (≈ 0.0108 µM). In addition, the Ratio in test [1] is 1.54.
`CC(=O)O[C@@H]1C2=C(C)[C@@H](OC(=O)[C@H](O)[C@@H](NC(=O)c3ccc(O)cc3)c3ccccc3)C[C@@](O)([C@@H](OC(=O)c3ccccc3)[C@@H]3[C@]4(OC(C)=O)CO[C@@H]4C[C@H](O)[C@@]3(C)[C@H]1O)C2(C)C`: the IC50 was > 0.1 µg/mL in the test on A549, > 0.1 µg/mL in the test with B16-F10, 0.067 µg/mL (≈ 0.0768 µM) in the test on HT-29 and > 0.1 µg/mL in the test with P388. Also, the Ratio in test [1] came to 1.07.
With `CC(=O)O[C@H]1C(=O)[C@@]2(C)[C@H]([C@H](OC(=O)c3ccccc3)[C@]3(O)C[C@H](OC(=O)[C@H](O)[C@@H](NC(=O)c4ccccc4)c4ccccc4)C(C)=C1C3(C)C)[C@]1(OC(C)=O)CO[C@@H]1C[C@@H]2O` [PACLITAXEL], the IC50 in the test on B16-F10 worked out at 0.0041 µg/mL (≈ 0.0048 µM); in the test on HT-29 it was 0.0024 µg/mL (≈ 0.00281 µM); in the test with P388, 0.046 µg/mL (≈ 0.0539 µM).
As to `CC(=O)O[C@@H]1C2=C(C)[C@@H](OC(=O)[C@H](O)[C@@H](NC(=O)OCC(C)(C)C)c3ccccc3)C[C@@](O)([C@@H](OC(=O)c3ccccc3)[C@@H]3[C@]4(OC(C)=O)CO[C@@H]4C[C@H](O)[C@@]3(C)[C@H]1O)C2(C)C`, the IC50 worked out at 0.00065 µg/mL (≈ 0.000751 µM) in the test with A549, 0.0074 µg/mL (≈ 0.00855 µM) with B16-F10, 0.0015 µg/mL (≈ 0.00173 µM) in the test with HT-29 and 0.019 µg/mL (≈ 0.0219 µM) in the test on P388. Further, the Ratio in test [1] worked out at 0.82.
Turning to `CC(=O)O[C@@H]1C2=C(C)[C@@H](OC(=O)[C@H](O)[C@@H](NC(=O)OCC(C)C)c3ccccc3)C[C@@](O)([C@@H](OC(=O)c3ccccc3)[C@@H]3[C@]4(OC(C)=O)CO[C@@H]4C[C@H](O)[C@@]3(C)[C@H]1O)C2(C)C`, the IC50 with A549 turned out to be 0.0043 µg/mL (≈ 0.00505 µM); in the test on B16-F10 it was 0.0069 µg/mL (≈ 0.0081 µM); with HT-29, 0.0023 µg/mL (≈ 0.0027 µM); with P388 it was 0.028 µg/mL (≈ 0.0329 µM). Further, in test [1], the Ratio came out at 1.03.
On to `CC(=O)O[C@@H]1C2=C(C)[C@@H](OC(=O)[C@H](O)[C@@H](NC(=O)OC(C)(C)C)c3ccccc3)C[C@@](O)([C@@H](OC(=O)c3ccccc3)[C@@H]3[C@]4(OC(C)=O)CO[C@@H]4C[C@H](O)[C@@]3(C)[C@H]1O)C2(C)C`, for which the IC50 in the test on A549 came out at 0.0003 µg/mL (≈ 0.000352 µM). Further, in test [1], the Ratio was determined as 0.87.
With `CCC(C)(C)OC(=O)N[C@@H](c1ccccc1)[C@@H](O)C(=O)O[C@H]1C[C@@]2(O)[C@@H](OC(=O)c3ccccc3)[C@@H]3[C@]4(OC(C)=O)CO[C@@H]4C[C@H](O)[C@@]3(C)[C@@H](O)[C@H](OC(C)=O)C(=C1C)C2(C)C`, the IC50 was found to be 0.001 µg/mL (≈ 0.00115 µM) in the test with A549, 0.0003 µg/mL (≈ 0.000346 µM) in the test with B16-F10, 0.00067 µg/mL (≈ 0.000774 µM) in the test with HT-29 and 0.0046 µg/mL (≈ 0.00531 µM) with P388. Besides, the Ratio in test [1] was found to be 0.73.
Regarding `CC(=O)O[C@@H]1C2=C(C)[C@@H](OC(=O)[C@H](O)[C@@H](NC(=O)OC(C)C)c3ccccc3)C[C@@](O)([C@@H](OC(=O)c3ccccc3)[C@@H]3[C@]4(OC(C)=O)CO[C@@H]4C[C@H](O)[C@@]3(C)[C@H]1O)C2(C)C`, the concentration for half-maximal inhibition (IC50) amounted to 0.0012 µg/mL (≈ 0.00143 µM) with A549, 0.0022 µg/mL (≈ 0.00263 µM) in the test on B16-F10, 0.0008 µg/mL (≈ 0.000955 µM) in the test with HT-29 and 0.0092 µg/mL (≈ 0.011 µM) in the test with P388. The Ratio in test [1] was 0.75.
Consider `CC(=O)O[C@@H]1C2=C(C)[C@@H](OC(=O)[C@H](O)[C@@H](NC(=O)CC(C)(C)C)c3ccccc3)C[C@@](O)([C@@H](OC(=O)c3ccccc3)[C@@H]3[C@]4(OC(C)=O)CO[C@@H]4C[C@H](O)[C@@]3(C)[C@H]1O)C2(C)C`, for which the IC50 stood at 0.027 µg/mL (≈ 0.0318 µM) in the test on A549, 0.0056 µg/mL (≈ 0.00659 µM) in the test on B16-F10, 0.009 µg/mL (≈ 0.0106 µM) in the test with HT-29 and 0.052 µg/mL (≈ 0.0612 µM) in the test with P388. For the same compound, the Ratio in test [1] came to 1.03.
As to `CC(=O)N[C@@H](c1ccccc1)[C@@H](O)C(=O)O[C@H]1C[C@@]2(O)[C@@H](OC(=O)c3ccccc3)[C@@H]3[C@]4(OC(C)=O)CO[C@@H]4C[C@H](O)[C@@]3(C)[C@@H](O)[C@H](OC(C)=O)C(=C1C)C2(C)C`, the IC50 with A549 was found to be 2.1 µg/mL (≈ 2.65 µM); in the test with B16-F10 it was 1.1 µg/mL (≈ 1.39 µM); with HT-29 it was 0.27 µg/mL (≈ 0.34 µM); in the test with P388, 2.02 µg/mL (≈ 2.54 µM). Also, the Ratio in test [1] was 3.17.
As for `CCOC(=O)N[C@@H](c1ccccc1)[C@@H](O)C(=O)O[C@H]1C[C@@]2(O)[C@@H](OC(=O)c3ccccc3)[C@@H]3[C@]4(OC(C)=O)CO[C@@H]4C[C@H](O)[C@@]3(C)[C@@H](O)[C@H](OC(C)=O)C(=C1C)C2(C)C`, the IC50 in the test with A549 was 0.0057 µg/mL (≈ 0.00692 µM); in the test with B16-F10, 0.018 µg/mL (≈ 0.0218 µM); with HT-29, 0.005 µg/mL (≈ 0.00607 µM); with P388, 0.043 µg/mL (≈ 0.0522 µM). Also, the Ratio in test [1] stood at 0.82.
As to `CC(=O)O[C@@H]1C2=C(C)[C@@H](OC(=O)[C@H](O)[C@@H](NC(=O)c3ccco3)c3ccccc3)C[C@@](O)([C@@H](OC(=O)c3ccccc3)[C@@H]3[C@]4(OC(C)=O)CO[C@@H]4C[C@H](O)[C@@]3(C)[C@H]1O)C2(C)C`, the IC50 in the test on A549 came out at 0.0072 µg/mL (≈ 0.00851 µM); in the test on B16-F10 it was 0.012 µg/mL (≈ 0.0142 µM); in the test with HT-29 it was 0.0041 µg/mL (≈ 0.00485 µM); in the test on P388 it was 0.034 µg/mL (≈ 0.0402 µM). Moreover, the Ratio in test [1] amounted to 0.73.
As to `CC(=O)O[C@@H]1C2=C(C)[C@@H](OC(=O)[C@H](O)[C@@H](NC(=O)c3ccc(C)cc3)c3ccccc3)C[C@@](O)([C@@H](OC(=O)c3ccccc3)[C@@H]3[C@]4(OC(C)=O)CO[C@@H]4C[C@H](O)[C@@]3(C)[C@H]1O)C2(C)C`, the IC50 was determined as 0.043 µg/mL (≈ 0.0494 µM) with A549, 0.025 µg/mL (≈ 0.0287 µM) in the test with B16-F10, 0.012 µg/mL (≈ 0.0138 µM) in the test with HT-29 and 0.063 µg/mL (≈ 0.0724 µM) with P388. In test [1], the Ratio stood at 0.75.
With `CC(=O)O[C@@H]1C2=C(C)[C@@H](OC(=O)[C@H](O)[C@@H](NC(=O)c3ccc(OCc4ccccc4)cc3)c3ccccc3)C[C@@](O)([C@@H](OC(=O)c3ccccc3)[C@@H]3[C@]4(OC(C)=O)CO[C@@H]4C[C@H](O)[C@@]3(C)[C@H]1O)C2(C)C`, the IC50 turned out to be 0.019 µg/mL (≈ 0.0197 µM) with A549, 0.025 µg/mL (≈ 0.026 µM) with B16-F10, 0.008 µg/mL (≈ 0.00832 µM) in the test with HT-29 and 0.053 µg/mL (≈ 0.0551 µM) in the test with P388. Moreover, the Ratio in test [1] stood at 0.76.
As for `CC(=O)O[C@@H]1C2=C(C)[C@@H](OC(=O)[C@H](O)[C@@H](NC(=O)C(C)(C)C)c3ccccc3)C[C@@](O)([C@@H](OC(=O)c3ccccc3)[C@@H]3[C@]4(OC(C)=O)CO[C@@H]4C[C@H](O)[C@@]3(C)[C@H]1O)C2(C)C`, the IC50 in the test with A549 was 0.11 µg/mL (≈ 0.132 µM); in the test on B16-F10 it was 0.035 µg/mL (≈ 0.0419 µM); in the test on HT-29, < 0.01 µg/mL; in the test on P388 it was 0.083 µg/mL (≈ 0.0993 µM). Further, in test [1], the Ratio came out at 2.36.
As to `CC(=O)O[C@@H]1C2=C(C)[C@@H](OC(=O)[C@H](O)[C@@H](NC(=O)NC(C)(C)C)c3ccccc3)C[C@@](O)([C@@H](OC(=O)c3ccccc3)[C@@H]3[C@]4(OC(C)=O)CO[C@@H]4C[C@H](O)[C@@]3(C)[C@H]1O)C2(C)C`, the 50% inhibitory concentration (IC50) with A549 came to 0.014 µg/mL (≈ 0.0165 µM); in the test with B16-F10 it was 0.0046 µg/mL (≈ 0.00541 µM); in the test with HT-29, 0.0056 µg/mL (≈ 0.00658 µM); in the test with P388, 0.017 µg/mL (≈ 0.02 µM). In test [1], the Ratio worked out at 1.06.
As for `CC(=O)O[C@@H]1C2=C(C)[C@@H](OC(=O)[C@H](O)[C@@H](NC(=O)OCc3ccccc3)c3ccccc3)C[C@@](O)([C@@H](OC(=O)c3ccccc3)[C@@H]3[C@]4(OC(C)=O)CO[C@@H]4C[C@H](O)[C@@]3(C)[C@H]1O)C2(C)C`, the IC50 with A549 was 0.031 µg/mL (≈ 0.035 µM); with B16-F10 it was 0.044 µg/mL (≈ 0.0497 µM); with HT-29, 0.012 µg/mL (≈ 0.0135 µM); in the test with P388 it was 0.057 µg/mL (≈ 0.0643 µM).
